Measurements as given in article PMC5907308, “21st Brazilian Diabetes Society Congress” (Diabetology & Metabolic Syndrome, 2018).
Read-outs that look alike come from different tables or passages of the source.

What was measured:
OVX female Swiss mice = format: in vivo, mouse
Description: (§1) Methods: Female Swiss mice with 80–100 days of life were OVX, after 2 weeks females in anestrous were distributed in the control groups (CTL): fed with normolipid diet and water containing 0.01% ethanol (vehicle); BPA control (CBPA): normolipid diet and water containing 0.01% ethanol and 1 μg/mL BPA; HFD: diet containing 36 g% fat and vehicle; and (HBPA): HFD and BPA. After 3 months, glucose tolerance test (GTT) and islet isolation for insulin secretion were performed (CEUA UFRJ-Macaé: MAC035 approval). Data were analyzed for the distribution of normality (Shapiro–Wilk), followed by analysis of variances: parametric (ANOVA followed by Newman–Keuls) or non-parametric (Kruskal–Wallis followed by Dunns; P < 0.05).

[1] = test system: islets isolated from OVX female Swiss mice; test: Glucose-stimulated insulin secretion of isolated islets; format: cell-based, mouse; settings: 2.8 mM glucose; HFD islets 1.2 ± 0.14
Description: as §1

diabetic pregnant women = format: in vivo, human; settings: 2009-2016, medical records
Description: Methods: We analyzed the medical records of the diabetic pregnant women who were attended at the Endocrinology Clinic of Hospital do Servidor Público Municipal between 2009 and 2016. The incidence of fetal macrosomia, prematurity, respiratory distress, hospitalization in intensive care unit and abortion were analyzed and correlated to the glycemic control. Good glycemic control was defined by the presence of at least 80% of capillary blood glucose within the following range: pre-prandial < 90 mg/dL, 1 h postprandial < 140 mg/dL, 2 h postprandial < 120 mg/dL

patient with glucagonoma = test: Case report: glucagonoma; format: in vivo, human; settings: zinc vitamin supplement and Octreotide
Text: Case report: patient four, hospitalized in 2015 for investigation of cholestatic syndrome associated with pancreatic mass of 51x48 mm evidenced on abdominal tomography (15/05/03). The patient underwent corpocaudal pancreatectomy and total splenectomy, with free surgical margins, but with angiolymphatic invasion. […] The patient received chemotherapy with gemcitabine which was replaced by Folfirinox. However, after 1 year without medical follow-up, they returned presenting weight loss, cutaneous disseminated lesions in the upper and lower limbs (Fig. 1), trunk and genitalia, angular cheilitis, macroglossia, deep venous thrombosis of the lower limbs and glycemia above 400 mg/dl. Figure 1: Cutaneous disseminated lesions It was used several antimicrobial regimens to treat skin lesions, unsuccessful, and performed biopsies of the skin, that diagnosis psoriasiform spongious dermatitis. The case was referred to the endocrinology departament and we did the diagnosis of glucagonoma, based on the symptoms and skin lesions, confirmed by pancreatic glucagon levels of 722 pg/ml (reference value < 208 pg/ml). […] We considered diagnosis hypothesis of adrenal insufficiency and after offered hydrocortisone, it was observed improvement in their condition in 24 h.

[2] = test system: Normoglycemic adult Wistar rats; settings: for TOTG glycemia, 120 min: CONT 93.7 ± 4.1
Description: The side effects are primarily determined by dosage and time of use. The objective was to evaluate the effects of increasing doses of PRD on the action of endogenous insulin in Wistar rats. Normoglycemic adult rats weighing 450–510 g were divided into 5 groups, differentiated by their daily treatment (18 days) orally, as the PRD dose used [CONT, PRD1 (0.625 mg/kg), PDR2 (1.250 mg/kg), PRD3 (2.500 mg/kg) and PRD4 ([…])]. Rats received water and food ad libitum, and on 0, 8 and 16 days of treatment the fasting glycemia was measured. On the 17th day, the oral glucose tolerance test (TOTG) was performed, collecting blood for glucose levels at fasting times (− 1 min) and 30, 60 and 120 min after administration of glucose solution. […] The data were statistically analyzed with significance of 5%.

[3] = test system: male rats with mild diabetes (neonatal streptozotocin); format: in vivo, rat
Description: Background: The prednisone (PRD) is a glucocorticoid that may lead to the development of temporary hyperglycemia. […] The objective was to evaluate the effects of PRD in mild diabetic rats by biochemical and immunological biomarkers. […] The rats were separated into 4 groups: control (C), treated control C + PRD (oral treatment of 1.25 mg/kg/day PRD); diabetic DM (mild diabetes) and treated diabetic DM + PRD (mild diabetes, treatment with same dose as C + PRD group). Untreated groups received vehicle, adjusted volume according to body weight. The treatment daily for 21 days and it were weekly measured the body weight, food and water intake, and glycemia. In the 3rd week of treatment, the oral glucose tolerance test (OGTT) and insulin tolerance test (TTI) were performed, area under the glycemic curve (ASC) values were calculated. In the 21st day, the rats were killed and the blood was collected for serum biochemical, leukogram and immunoglobulin G determinations. All data was statistically evaluated with 5% significance.

male Wistar rats = format: in vivo, rat
Description: In addition, experimental studies of effects of different doses are important in assessing the safety of a drug. The objective was to evaluate the lipid biomarkers in rats treated with several doses of prednisone. […] The treatment was daily for of 21 days, with weekly measures of body weight, food consumption and calories ingested on days 0, 8 and 16 of treatment. On the last day, the caloric gain was evaluated and then the rats were anesthetized and killed by decapitation to collect the whole blood for serum biochemical analyzes. All data were statistically evaluated with significance of 5%.

[4] = test system: patients submitted to liver transplantation; format: in vivo, human; settings: Tacrolimus 95% CI 1.2–32.5, p = 0.029; PDN 95% CI 2.4–21, 8, p < 0.001
Text: A total of 152 patients were included. […] Comparisons were done with Chi square tests and analysis of independent risk factors with multivariate logistic regression.

[5] = test system: patients with long-standing T1DM; test: Mixed-meal tolerance test + oral 5 mg glibenclamide, ultrasensitive C-peptide; format: in vivo, human; settings: 4 of 6 T1DM patients
Description: Fasting blood was taken for measurement of C-peptide (ELISA; Mercodia® (Uppsala, Sweden; cat.Nº10-1141-01). Thirty one patients (24,5%) had C-peptide > 10 pmol/L or 0.03 ng/ml. Six patients were randomly recruited to undergo a mixed-meal tolerance test + oral 5 mg glibenclamide.

participants with T1DM = test: Multiple-dosing crossover euglycemic glucose clamp study, steady-state PK/PD; format: in vivo, human
Text: For both insulins, participants received 0.4 (n = 24) or 0.6 U/kg/day (n = 24) at ~ 8 am for 8 days. Main endpoint: within-day variability (fluctuation) of smoothed glucose infusion rate (GIR) over a 24-h dosing period (GIR-smFL0-24). […] This is an ENCORE abstract previously presented at ADA2017. Funding and editorial support provided by Sanofi (Fig. 1)

[6] = test system: adults with T2D using basal insulin; test: DELIVER2 real-world study, switch of basal insulin; format: in vivo, human; settings: PS matched
Description: Methods: DELIVER2 used data from Predictive Health Intelligence Environment database of medical records representing 37 integrated delivery networks. […] The endpoints were A1C change from baseline, incidence and event rate of hypoglycemia (hypo) (identified by ICD-9/ICD-10 and/or plasma glucose level ≤ 70 mg/dL), and HCU (incidence and event rate of all-cause, diabetes-, and hypo-related visits) within 6 m.

[7] = test system: T2DM pts uncontrolled on BOT with other BI; test: TOP-2 prospective observational study, 6 month interim analysis; format: in vivo, human
Description: Adult pts currently on a BOT with an indication for changing their insulin therapy due to non-achievement of glycemic targets (A1c 7.5–10.0%) are enrolled. Primary endpoint (EP) is the rate of pts achieving a fasting plasma glucose (FPG) ≤ 110 mg/dL after 6 and 12 months, respectively. Secondary EPs include change in A1c, FPG, body weight (BW) and insulin dose, hypoglycemia incidence and safety. Here we report on an interim analysis including all German pts, for whom 6 month results were available 15 months after study start (n = 661). […] Less pts experienced nocturnal hypoglycemia (0.5% vs 1.2%). […] Final results are expected for 2018 (Fig. 1)

patients with T2D = test: Network meta-analysis Gla-300 vs IDeg (inputs of the cost-effectiveness model); format: in vivo, human; settings: estimated by network meta-analysis
Text: Methods: This modelling analysis simulated a cohort representing patients in the EDITION 2 and 3 trials using the IMS Core Diabetes Model with a time horizon of 50 years (lifetime) for 1,000,000 patients starting at 62 years old. […] The treatment cost was $1,561 per SHE and $13.65 per NSHE (2015 $). Utilities to estimate quality-adjusted life years (QALYs) for multiple comorbidities were applied using the minimum utility approach. A disutility of -0.0118 was applied for SHE, and method of diminishing marginal disutility for NSHE.

[8] = test system: T2D pts aged ≥ 65 years on basal insulin; test: DELIVER 3 retrospective real-world study; format: in vivo, human
Description: Older patients (pts) with T2D are disproportionately impacted by treatment-related hypoglycemia and its adverse consequences. […] Pts had ≥ 12 months (mo) of baseline data and ≥ 6 mo of follow-up data. The effect of cohort on A1C reduction, hypoglycemia incidence/event rate, and achievement of A1C goal at 6 mo were assessed by generalized linear models or logistic regression models with adjustment for baseline characteristics. […] This is an ENCORE abstract previously presented at ADA2017. Funding and editorial support provided by Sanofi.

[9] = 0.625 mg/kg daily orally (PRD1)
[10] = 1.250 mg/kg daily orally (PRD2)

CC(C)(c1ccc(O)cc1)c1ccc(O)cc1 [BPA, Bisphenol-A]
glycemia in GTT (OVX female Swiss mice; 15 min, HFD 444 ± 13): 427 ± 17 mg/dL
glycemia in GTT (OVX female Swiss mice; 30 min, HFD 453 ± 23): 450 ± 22 mg/dL
insulin secretion [1]: 1.8 ± 0.2 ng/islet h

CN(C)C(=N)N=C(N)N [D + PA + MTF, metformin]
pregnant women with adverse perinatal outcomes / women in group (diabetic pregnant women): 5/12

C[C@@H](O)[C@@H]1NC(=O)[C@H](CCCCN)NC(=O)[C@@H](Cc2c[nH]c3ccccc23)NC(=O)[C@H](Cc2ccccc2)NC(=O)[C@@H](NC(=O)[C@H](N)Cc2ccccc2)CSSC[C@@H](C(=O)N[C@H](CO)[C@@H](C)O)NC1=O [Octreotide]
skin lesions (necrolytic migratory erythema) (patient with glucagonoma): effective in reducing the number and extent of lesions

C[C@]12C=CC(=O)C=C1CC[C@@H]1[C@@H]2C(=O)C[C@@]2(C)[C@H]1CC[C@]2(O)C(=O)CO [prednisone]
TOTG glycemia, time -1 min ([2]; 0.625 mg/kg (PRD1), day 17, CONT 87.7 ± 5.7): 106 ± 5.8 mg/dL
TOTG glycemia, 120 min ([2]; 0.625 mg/kg (PRD1)): 122.8 ± 15.7 mg/dL
fasting glycemic increase compared to CONT, day 8 [2, 9]: 30%
fasting glycemic increase compared to CONT, day 16 [2, 9]: 20%
glycemia increase of PRD1 compared to PRD4, day 16 ([2]; 0.625 mg/kg vs PRD4): 16%
TOTG glycemia, 120 min ([2]; 1.250 mg/kg (PRD2)): 120.6 ± 11.6 mg/dL
fasting glycemic increase compared to CONT, day 8 [2, 10]: 27%
fasting glycemic increase compared to CONT, day 16 [2, 10]: 9%
ASCp, increased glycemic load vs CONT, interval 30–60 min ([2]; PRD4): 36%
glycemia increasing vs C group, all weeks of treatment ([3]; DM + PRD, 1.25 mg/kg/day): 51%
lymphocytes, increase vs C group ([3]; DM + PRD, day 21): 19%
neutrophils, increase vs C group ([3]; DM + PRD, day 21): 200%
total leukocytes, increase vs C group ([3]; DM + PRD, day 21): 30%
food intake increasing vs C group, 2nd and 3rd week ([3]; DM + PRD, oral 1.25 mg/kg/day): 18%
high-density lipoprotein, decrease vs C group ([3]; DM + PRD, serum): 8%
triglycerides, decrease vs C group ([3]; DM + PRD, serum): 21%
very low-density lipoproteins, decrease vs C group ([3]; DM + PRD, serum): 10%
OGTT glycemia, 30 min ([3]; DM + PRED group, 3rd week): 275 mg/dL
OGTT glycemia, 60 min ([3]; DM + PRED group, 3rd week): 258 mg/dL
OGTT glycemia, 120 min ([3]; DM + PRED group, 3rd week): 161 mg/dL
body weight decrease, all measures ([3]; DM and DM + PRD groups): about 27%
calories ingested, 16th day of treatment (male Wistar rats; 5.0 mg/Kg daily (PRD2), n = 7): 93.2 ± 20.4 kcal/day
calories ingested, day 0 (male Wistar rats; 5.0 mg/Kg daily (PRD2), n = 7): 63.7 ± 12.3 kcal/day
calories ingested, day 8 of treatment (male Wistar rats; 5.0 mg/Kg daily (PRD2), n = 7): 69.0 ± 18.1 kcal/day
body weight, dietary intake, serum triglyceride, total cholesterol, VLDL, LDL, non-HDL cholesterol (male Wistar rats; 2.5 and 5.0 mg/Kg, 21 days, p > 0.05): no differences
independent risk factor for PTDM, OR [4]: 7.2

COc1ccc(Cl)cc1C(=O)NCCc1ccc(S(=O)(=O)NC(=O)NC2CCCCC2)cc1 [sulfonylurea, glibenclamide]
patients with positive response (C-peptide > 200 pmol/L) [5]: 66.7%

insulin glargine [Gla-300]
Within-day GIR variability (GIR-smFL0-24), lower vs. Deg-100 (participants with T1DM; 0.4 U/kg/day once daily ~8 am for 8 days, steady state, n = 24, p = 0.047): 20%
Within-day GIR variability (GIR-smFL0-24) vs. Deg-100 (participants with T1DM; 0.6 U/kg/day, n = 24): comparable
A1C during 6 m follow-up [6]: 8.40%
Mean baseline A1C ([6]; 1827 pts per group): 8.95%
mean (± SD) A1c before switching ([7]; n = 661): 8.21 ± 0.8%
HbA1c, TOP-2 FAS 6 month [mean±SD] ([7]; six months after switching to Gla-300): 7.67 ± 1.0%
A1C reduction over 24 weeks (patients with T2D): 1.00%
achieved A1C < 7.0%, OR vs. other basal insulins ([8]; 95% CI 0.581, 1.098, P = 0.166): 0.798
achieved A1C < 8.0%, OR vs. other basal insulins ([8]; 95% CI 0.749, 1.248, P = 0.797): 0.967
